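Method: 48-hour compound exposure of cells in 96-well plates, five concentrations, linear interpolation of endpoints. Here, GI50 denotes the concentration required for 50% inhibition of growth.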 Calls of active or inactive are those of the source. No stated cut-off is given here; in the data, active = GI50 up to about 1.1 µM and inactive = higher.
What was measured:
Assay in all cases: NCI-60 cell line screen, 48 h
A498 = tested on: A498
TK-10 = tested on: TK-10
M14 = tested on: M14
MOLT-4 = tested on: MOLT-4
SK-MEL-5 = tested on: SK-MEL-5
SR = tested on: SR
HCT-116 = tested on: HCT-116
UACC-62 = tested on: UACC-62
SF-295 = tested on: SF-295
SK-MEL-28 = tested on: SK-MEL-28
HOP-62 = tested on: HOP-62
HOP-92 = tested on: HOP-92
OVCAR-3 = tested on: OVCAR-3
SK-MEL-2 = tested on: SK-MEL-2
U-251 = tested on: U-251
OVCAR-4 = tested on: OVCAR-4
SNB-75 = tested on: SNB-75
SF-539 = tested on: SF-539
RPMI-8226 = tested on: RPMI-8226
NCI-H226 = tested on: NCI-H226

Measured: GI50

Oc1ccc(-c2ccccc2)nn1
inactive: A498 > 100 µM | TK-10 > 100 µM | M14 > 100 µM | MOLT-4 > 100 µM | SK-MEL-5 > 100 µM | SR > 100 µM | HCT-116 > 100 µM | UACC-62 > 100 µM | SF-295 > 100 µM | SK-MEL-28 > 100 µM | HOP-62 > 100 µM | HOP-92 > 100 µM | OVCAR-3 > 100 µM | SK-MEL-2 > 100 µM | U-251 > 100 µM | OVCAR-4 > 100 µM

CC(C)(C)c1c2c(c(C(C)(C)C)c3c1OCN(Cc1ccccc1)C3)OCN(Cc1ccccc1)C2
inactive: A498 6 µM | TK-10 15 µM | M14 14.2 µM | MOLT-4 18.2 µM | SK-MEL-5 8.87 µM | SNB-75 37.2 µM | SR 18.9 µM | SF-539 16 µM | HCT-116 11.3 µM | UACC-62 17.7 µM | SF-295 15.2 µM | SK-MEL-28 29.6 µM | RPMI-8226 8.69 µM | HOP-62 18.9 µM | HOP-92 12 µM | OVCAR-3 14 µM | SK-MEL-2 16.6 µM | U-251 14.8 µM | OVCAR-4 44.7 µM

Cc1nn(C(=O)CC(=O)Nc2ccccc2Cl)c(C)c1/N=N/c1ccccc1Cl
inactive: A498 > 100 µM | TK-10 > 100 µM | M14 > 100 µM | MOLT-4 > 100 µM | SK-MEL-5 > 100 µM | SNB-75 82 µM | SR > 100 µM | SF-539 80.9 µM | HCT-116 > 100 µM | UACC-62 > 100 µM | SF-295 > 100 µM | SK-MEL-28 > 100 µM | HOP-62 > 100 µM | HOP-92 > 100 µM | OVCAR-3 > 100 µM | SK-MEL-2 > 100 µM | U-251 > 100 µM | OVCAR-4 > 100 µM

COc1ccc(CCCNC(=O)Cc2cc(OC)c(OC)cc2CO)cc1OC
inactive: A498 > 100 µM | TK-10 > 100 µM | M14 > 100 µM | MOLT-4 > 100 µM | SK-MEL-5 > 100 µM | SNB-75 > 100 µM | SR > 100 µM | NCI-H226 > 100 µM | HCT-116 > 100 µM | UACC-62 > 100 µM | SK-MEL-28 > 100 µM | HOP-62 > 100 µM | HOP-92 > 100 µM | OVCAR-3 > 100 µM | SK-MEL-2 > 100 µM | U-251 > 100 µM | OVCAR-4 > 100 µM

COc1ccc(/N=N/c2c(C)c(C#N)c(=S)n(C3OC(COC(C)=O)C(OC(C)=O)C(OC(C)=O)C3OC(C)=O)c2-c2ccccc2)cc1 (stereo unspecified)
inactive: A498 1.5 µM | TK-10 19.2 µM | M14 1.94 µM | MOLT-4 3.08 µM | SR 4.07 µM | SF-539 > 10 µM | HCT-116 4.32 µM | SF-295 5.85 µM | SK-MEL-28 7.98 µM | RPMI-8226 5.65 µM | HOP-62 11.6 µM | HOP-92 4.01 µM | OVCAR-3 13.9 µM | SK-MEL-2 8.04 µM | U-251 10.7 µM | OVCAR-4 3.15 µM

O=S(=O)(CCC[C@H]1[C@@H](CCOCc2ccccc2)C2CCCN1O2)c1ccccc1 (stereo partly specified)
inactive: A498 > 100 µM | TK-10 > 100 µM | M14 > 100 µM | MOLT-4 65.3 µM | SK-MEL-5 43.3 µM | SNB-75 > 100 µM | SR > 100 µM | NCI-H226 > 100 µM | SF-539 > 100 µM | HCT-116 > 100 µM | UACC-62 > 100 µM | SF-295 > 100 µM | SK-MEL-28 > 100 µM | HOP-62 > 100 µM | HOP-92 > 100 µM | OVCAR-3 > 100 µM | U-251 > 100 µM | OVCAR-4 > 100 µM

O=C(O)C(Cc1ccccc1)N1C(=O)N/C(=C\c2ccc(F)cc2)C1=O (stereo unspecified)
inactive: TK-10 > 100 µM | M14 > 100 µM | MOLT-4 > 100 µM | SK-MEL-5 > 100 µM | SNB-75 > 100 µM | SR > 100 µM | NCI-H226 > 100 µM | SF-539 > 100 µM | HCT-116 > 100 µM | UACC-62 36.7 µM | SF-295 > 100 µM | RPMI-8226 > 100 µM | HOP-62 > 100 µM | HOP-92 > 100 µM | SK-MEL-2 > 100 µM | U-251 > 100 µM | OVCAR-4 > 100 µM

COc1ccc2c(c1)/C(=C(\C(Cl)=C(Cl)Cl)[N+](=O)[O-])N2
inactive: A498 92.7 µM | TK-10 > 100 µM | M14 > 100 µM | MOLT-4 24.2 µM | SK-MEL-5 41 µM | SNB-75 35.7 µM | SR 11 µM | NCI-H226 22.3 µM | HCT-116 > 100 µM | UACC-62 > 100 µM | SF-295 62.4 µM | SK-MEL-28 > 100 µM | HOP-62 > 100 µM | HOP-92 > 100 µM | OVCAR-3 28.2 µM | U-251 91.2 µM | OVCAR-4 49.1 µM

O=C([O-])C(O)C(O)C(O)C(O)C(=O)O.[K+] (stereo unspecified)
inactive: A498 > 100 µM | M14 > 100 µM | MOLT-4 > 100 µM | SK-MEL-5 > 100 µM | SNB-75 > 100 µM | SR > 100 µM | NCI-H226 > 100 µM | SF-539 > 100 µM | HCT-116 > 100 µM | UACC-62 > 100 µM | SF-295 > 100 µM | SK-MEL-28 > 100 µM | HOP-62 > 100 µM | HOP-92 > 100 µM | OVCAR-3 > 100 µM | SK-MEL-2 > 100 µM | U-251 > 100 µM | OVCAR-4 > 100 µM

CN(C)CC[N+](C)(C)[BH2-]C(O)O
inactive: A498 > 100 µM | TK-10 > 100 µM | M14 > 100 µM | MOLT-4 > 100 µM | SK-MEL-5 > 100 µM | SNB-75 > 100 µM | SR > 100 µM | SF-539 > 100 µM | HCT-116 > 100 µM | UACC-62 > 100 µM | SF-295 > 100 µM | SK-MEL-28 > 100 µM | HOP-62 > 100 µM | HOP-92 > 100 µM | OVCAR-3 > 100 µM | SK-MEL-2 > 100 µM | U-251 > 100 µM | OVCAR-4 > 100 µM

COC(=O)C1C2C=CC(C2)N1[C@@H](C)c1ccccc1 (stereo partly specified)
inactive: A498 > 100 µM | TK-10 > 100 µM | M14 > 100 µM | SK-MEL-5 > 100 µM | SNB-75 > 100 µM | SR > 100 µM | SF-539 > 100 µM | HCT-116 > 100 µM | UACC-62 > 100 µM | SF-295 > 100 µM | SK-MEL-28 > 100 µM | RPMI-8226 > 100 µM | HOP-62 > 100 µM | HOP-92 > 100 µM | OVCAR-3 > 100 µM | SK-MEL-2 > 100 µM | U-251 > 100 µM

— ChEMBL document CHEMBL1201862, “PubChem BioAssay data set” (2004)
